Measurements taken from ChEMBL document CHEMBL1201862, “PubChem BioAssay data set” (2004).
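Compound exposure: 48 hours, 5 concentrations, 96-well plates. At the GI50, growth is halved.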 The source made the active and inactive calls. Cut-off read from the data, not from the text of the source: active = GI50 up to about 1.1 µM and inactive = higher.

Key:
Test in all cases: NCI-60 cell line screen, 48 h
SF-295 = tested on: SF-295
U-251 = tested on: U-251
UACC-257 = tested on: UACC-257
HOP-92 = tested on: HOP-92
DU-145 = tested on: DU-145
OVCAR-4 = tested on: OVCAR-4
RPMI-8226 = tested on: RPMI-8226
SW-620 = tested on: SW-620
SR = tested on: SR
SK-MEL-5 = tested on: SK-MEL-5
SNB-19 = tested on: SNB-19
Malme-3M = tested on: Malme-3M
A549 = tested on: A549
CCRF-CEM = tested on: CCRF-CEM
SF-539 = tested on: SF-539
NCI-H460 = tested on: NCI-H460
MDA-N = tested on: MDA-N
OVCAR-8 = tested on: OVCAR-8
KM12 = tested on: KM12
M14 = tested on: M14

SMILES | GI50 (SF-295) | GI50 (U-251) | GI50 (UACC-257) | GI50 (HOP-92) | GI50 (DU-145) | GI50 (OVCAR-4) | GI50 (RPMI-8226) | GI50 (SW-620) | GI50 (SR) | GI50 (SK-MEL-5) | GI50 (SNB-19) | GI50 (Malme-3M) | GI50 (A549) | GI50 (CCRF-CEM) | GI50 (SF-539) | GI50 (NCI-H460) | GI50 (MDA-N) | GI50 (OVCAR-8) | GI50 (KM12) | GI50 (M14)
CCOC(=O)c1cccc(NC(=O)CI)c1 | 2.47 µM (inactive) | 0.313 µM (active) | 1.36 µM (inactive) | 1.07 µM (active) | 1.76 µM (inactive) | 0.5 µM (active) | 0.721 µM (active) | 0.207 µM (active) | 0.0262 µM (active) | 0.507 µM (active) | 3.54 µM (inactive) | 1.21 µM (inactive) | 1.75 µM (inactive) | 0.0239 µM (active) | 0.65 µM (active) | 1.2 µM (inactive) | 0.211 µM (active) | 0.264 µM (active) | 1.67 µM (inactive) | 0.23 µM (active)
CCC(=O)OCOc1ccc(/C=C2\CCC(CN(C)C)C2=O)cc1 (stereo not given) | 8.85 µM (inactive) | 11.1 µM (inactive) | 3.39 µM (inactive) | 11 µM (inactive) | 10.8 µM (inactive) | 4.09 µM (inactive) | 2.43 µM (inactive) | 2.32 µM (inactive) | 2.15 µM (inactive) | 11.7 µM (inactive) | 16.7 µM (inactive) | 3.96 µM (inactive) | 18.3 µM (inactive) | 1.61 µM (inactive) | 8.41 µM (inactive) | 15.9 µM (inactive) | 5.47 µM (inactive) | 4.19 µM (inactive) | 3.9 µM (inactive) | 3.42 µM (inactive)
COC(=O)Nc1nc2cc(S(=O)(=O)N3CCOCC3)ccc2[nH]1 | > 100 µM (inactive) | > 100 µM (inactive) | > 100 µM (inactive) | > 100 µM (inactive) | > 100 µM (inactive) | > 100 µM (inactive) | 30.3 µM (inactive) | 54.1 µM (inactive) | 51.1 µM (inactive) | > 100 µM (inactive) | > 100 µM (inactive) | > 100 µM (inactive) | > 100 µM (inactive) | 52.8 µM (inactive) | 12.4 µM (inactive) | > 100 µM (inactive) | 27.6 µM (inactive) | > 100 µM (inactive) | 65.5 µM (inactive) | > 100 µM (inactive)
CCCCCCCCCC(=O)NCCc1c[nH]c2ccc(OC)cc12 | 17.4 µM (inactive) | 17 µM (inactive) | 20.8 µM (inactive) | 16.2 µM (inactive) | 20.2 µM (inactive) | > 100 µM (inactive) | 21.1 µM (inactive) | 18.2 µM (inactive) | 40.9 µM (inactive) | 18.5 µM (inactive) | 16.5 µM (inactive) | 18.2 µM (inactive) | 19 µM (inactive) | 7.26 µM (inactive) | 23.2 µM (inactive) | 23.3 µM (inactive) | 18.8 µM (inactive) | 16.6 µM (inactive) | 27.9 µM (inactive) | 17.9 µM (inactive)
NC(=O)CO/N=C1/C(=C2/C(=O)Nc3ccccc32)Nc2ccccc21 | > 100 µM (inactive) | > 100 µM (inactive) | > 100 µM (inactive) | > 100 µM (inactive) | 1.67 µM (inactive) | > 100 µM (inactive) | 17.9 µM (inactive) | 4.95 µM (inactive) | 0.778 µM (active) | 1.49 µM (inactive) | > 100 µM (inactive) | > 100 µM (inactive) | 1.96 µM (inactive) | 11.5 µM (inactive) | > 100 µM (inactive) | 1.11 µM (active) | 53 µM (inactive) | 62.5 µM (inactive) | 0.247 µM (active) | 10.4 µM (inactive)
CC(C)=CCC[C@](C)(O[C@@H]1O[C@H](CO)[C@@H](O)[C@H](O)[C@H]1O)[C@H]1CC[C@]2(C)[C@@H]1[C@H](O)C[C@@H]1[C@@]3(C)CC[C@H](O)C(C)(C)[C@@H]3[C@@H](O[C@@H]3O[C@H](CO)[C@@H](O)[C@H](O)[C@H]3O)C[C@]12C [GINSENOSIDE RG1] | > 100 µM (inactive) | > 100 µM (inactive) | > 100 µM (inactive) | > 100 µM (inactive) | > 100 µM (inactive) | > 100 µM (inactive) | > 100 µM (inactive) | > 100 µM (inactive) | > 100 µM (inactive) | > 100 µM (inactive) | > 100 µM (inactive) | > 100 µM (inactive) | > 100 µM (inactive) | > 100 µM (inactive) | > 100 µM (inactive) | > 100 µM (inactive) | > 100 µM (inactive) | > 100 µM (inactive) | > 100 µM (inactive) | > 100 µM (inactive)
O=C1C[C@H](COCc2ccccc2)NC(=O)C[C@H](COCc2ccccc2)NC(=O)C[C@H](COCc2ccccc2)N1 | 19.2 µM (inactive) | 12.6 µM (inactive) | > 100 µM (inactive) | 12.2 µM (inactive) | > 100 µM (inactive) | > 100 µM (inactive) | > 100 µM (inactive) | > 100 µM (inactive) | 42.4 µM (inactive) | > 100 µM (inactive) | 18.6 µM (inactive) | > 100 µM (inactive) | > 100 µM (inactive) | > 100 µM (inactive) | 15.3 µM (inactive) | > 100 µM (inactive) | > 100 µM (inactive) | > 100 µM (inactive) | > 100 µM (inactive) | > 100 µM (inactive)
